Laboratory results reported in PMC11181328 (Journal of Medicinal Chemistry, 2024).
Read-outs that look alike come from different tables or passages of the source.

Legend:
KOR = biological target: T1, KOR (Mus musculus, UniProt P33534); assay: Competitive radioligand binding assay, KOR; conditions: for radioligand binding affinity (Ki, nM) KOR: [3H]diprenorphine, mKOR-CHO membranes; for selectivity ratio δ/κ / selectivity ratio μ/κ: ratio of Ki values
T1 construct: expressed in transfected cells; membrane homogenate

DOR [1] = biological target: T2, DOR (Homo sapiens, UniProt P41143); assay: Competitive radioligand binding assay, DOR
T2 construct: expressed in transfected cells; membrane homogenate

DOR [2] = biological target: T2, DOR; assay: [35S]-GTPγS functional assay, DOR; format: biochemical; conditions: for EC50: hDOR-CHO membranes; for Emax: percent of SNC80 full agonist control
male Swiss Webster mice [3] = assay: Warm-water tail immersion assay, agonism (single dose screen and potency); format: in vivo, mouse; conditions: for ED50: Mus musculus, sc, read-out: potency ED50 [95% CI] mg/kg, 20 min prior to tail withdrawal latency measurement, male Swiss Webster mice; for ED50 / ED75: s.c.; for ED75: warm-water tail immersion; for percent MPE: single dose 10 mg/kg s.c., withdrawal latency 20 min after administration
male Swiss Webster mice [4] = assay: Warm-water tail immersion assay, time course study; format: in vivo, mouse; conditions: for onset of antinociceptive effects: s.c.
male Swiss Webster mice [5] = assay: Locomotor activity assay; format: in vivo, mouse; conditions: s.c., 30 min session; for average speed by time versus vehicle: Figure 6F–H
Procedure: This hypolocomotion could result in false positives in assays of evoked antinociception such as WWTI.[115] Thus, a locomotor activity assay was utilized to assess this end point in accordance with previous studies.[28] In brief, the day prior to testing, mice were placed in the open field chamber for acclimation. On the test day, they were injected with compounds 21, 23, NLF, or vehicle and immediately placed back into the open field chamber. Photo beam breaks then recorded the mouse’s locomotion over a 30 min test period.
Six open field activity chambers (Med Associates, St. Albans, VT) were used in the locomotor activity study. Each chamber is located inside a sound-attenuating cubicle (Med Associates) and is equipped with a ventilation system. The interior of the chamber consists of a 27 × 27 cm plexiglass enclosure wired with photobeam cells and connected to a computer console that monitors the activity of the animal.
The day before the experiment, mice were acclimated to the activity chambers for a period of 30 min. On the day of the experiment, mice were administered vehicle or test compound s.c., placed into the activity chambers immediately and activity was monitored and recorded for a period of 30 min.
The primary dependent measures are total (1) distance traveled (cm), (2) ambulatory counts, (3) vertical counts, and (4) average speed (cm/s) within the 30 min session. Data are shown as mean ± SEM. Data were compared using one-way or two-way ANOVA as appropriate and a significant ANOVA was followed by a Dunnet’s post hoc test as appropriate. Statistical significance was defined as p < 0.05.

[6] = Drug distribution study (brain and plasma, LC-MS/MS); format: in vivo, mouse; conditions: 0.1 mg/kg s.c.; for Kp at 5 min / Kp at 10 min / Kp at 0.5 h / Kp at 1 h: Swiss Webster, mouse, sc, read-out: B/P (brain-to-plasma concentration ratio); for Kp at 0.5 h: 30 min; for Kp at 1 h: 60 min
Procedure: To examine the potential for these compounds to exert their effects on the central nervous system, a drug distribution study monitoring blood–brain barrier penetration was used. […] Plasma and brain homogenate were then analyzed via liquid chromatography with tandem mass spectrometry (LC-MS/MS) to allow calculation of brain-to-plasma ratios.[78]
The test compound was administered s.c., and a group of Swiss Webster mice was euthanized by decapitation at each time point (5, 10, 30, 60 min post injection) allowing whole brain and blood samples to be harvested. Brain samples were washed with saline to ensure removal of any blood on the isolated brain and were then immersed in 300 μL saline. Blood samples were centrifuged for 10 min (15,000g; 4 °C) to collect plasma. Brain and plasma samples were stored at −80 °C until further analysis.
Identification and quantification of test compound in mouse brain and plasma were performed using a modification of a previously described method with an internal standard of naloxone-d5.[126] Compounds were extracted from both blood and brain by a liquid/liquid extraction. Briefly, brain tissue samples were homogenized 1-part tissue to 3-parts water. Seven-point calibration curves (10–1000 ng/mL or ng/g) in plasma, drug free control, a negative control without internal standard in plasma and brain, and quality control specimens in plasma and brain (30, 300, and 750 ng/mL or ng/g) were prepared and analyzed with each batch of samples. […], was added at 10 ng/mL concentration to aliquots of either 100 μL for blood or 400 μL for brain homogenate to each calibrator, control, or specimen except the negative control. To these samples, 0.5 mL of saturated carbonate/bicarbonate buffer (1:1, pH 9.5) and 2.0 mL of chloroform/2-propanol (8:2) were added. The samples were then mixed and centrifuged. The top, aqueous layer was aspirated, and the organic layer was transferred to a clean test tube and evaporated to dryness under nitrogen. The samples were then reconstituted in 80:[…] and transferred to autosampler vials for analysis. The chromatographic separation of test compounds and naloxone-d5 was accomplished using a Shimadzu Nexera X2 liquid chromatography system and a Zorbax XDB-C18 4.6 × 75 mm, 3.5 μm column (Agilent Technologies, Santa Clara, CA). The mobile phases consisted of (A) water with 1 g/L ammonium formate and 0.1% formic acid, and (B) methanol. The flow rate was set to 1 mL/min. The mobile phase started with 20% B and was increased to 80% B at 1.0 min and held constant for 1.5 min before returning to 20% B. The system detector was a Sciex 6500 QTRAP system with an IonDrive Turbo V source for TurboIonSpray (Sciex, Ontario, Canada) that had the curtain gas flow rate set at 30 mL/min and the ion source gases 1 and 2 at 60 mL/min. The source temperature was set at 650 °C with an ionspray voltage was 5500 V. The declustering potential was 58 eV.
The primary dependent measures are (1) the plasma concentration of the test compound (μg/mL), (2) the brain concentration of the test compound (μg/g), and (3) the brain-to-plasma concentration ratio calculated as [brain]/[plasma]. Concentrations were determined by a linear regression plot based on peak ratios of the calibrators. Data are shown as mean ± SEM. Data were compared using one-way ANOVA as appropriate and a significant ANOVA was followed by a Dunnet’s post hoc test as appropriate. Statistical significance was defined as p < 0.05.

[7] = test system: male and female Sprague–Dawley rats; conditions: intravenous, FR5 schedule of reinforcement, 2 h sessions
in vitro [8] = conditions: human, s9
in vitro [9] = conditions: Sprague-Dawley, rat, s9
MOR = MOR (Mus musculus, UniProt P42866); assay: Competitive radioligand binding assay, MOR; parameters: expressed in transfected cells; membrane homogenate; conditions: for radioligand binding affinity (Ki, nM) MOR: [3H]naloxone, mMOR-CHO membranes
[10] = warm water tail immersion studies (Figure 3)

Row | SMILES | Ki (KOR) | radioligand binding affinity (Ki, nM) KOR (KOR) | selectivity ratio δ/κ (KOR) | selectivity ratio μ/κ (KOR) | Ki (DOR [1]) | EC50 (DOR [2]) | Emax (DOR [2]) | ED50 (male Swiss Webster mice [3]) | ED75 (male Swiss Webster mice [3]) | percent MPE (male Swiss Webster mice [3]) | antinociceptive effects significant until (time postinjection) (male Swiss Webster mice [4]; 0.1 mg/kg s.c.) | onset of antinociceptive effects (male Swiss Webster mice [4]) | duration of action (male Swiss Webster mice [4]; [10]) | locomotor activity (male Swiss Webster mice [5]) | average speed by time versus vehicle (male Swiss Webster mice [5]) | time point of highest plasma concentration [6] | reinforcing effect (number of infusions earned versus saline) [7] | half-life (in vitro [8]) | microsomal CLint (in vitro [8]) | Ki (MOR) | further results
1 | CN(C(=O)/C=C/c1ccco1)[C@@H]1CC[C@@]2(O)[C@H]3Cc4ccc(O)c5c4[C@@]2(CCN3CC2CC2)[C@H]1O5.Cl [Compound 23, 17-Cyclopropylmethyl-3,14β-dihydroxy-4,5α-epoxy-6β-[(2E)-3′-(furan-2″-yl)-N-methylprop-2-enamido]morphinan Hydrochloride] | 220 ± 30 pM | subnanomolar | 36 | 4 | 7930 ± 1020 pM | 16400 ± 3250 pM | > 80% | 0.01 mg/kg | 0.05 mg/kg | ≥ 80% | 6 h | approximately 30 min | > 3 h | dose-dependent decrease in locomotor activity across all end points | significantly different from vehicle | 5 min | no dose maintained a significant number of infusions earned above saline | > 2 h | < 5.8 µL/min/mg | 780 ± 50 pM | antinociceptive effects significant until (time postinjection) (male Swiss Webster mice [4]; 0.05 mg/kg s.c.): 3 h; duration of action (male Swiss Webster mice [4]; 0.5 mg/kg s.c.): 3 h; Kp at 5 min ([6]; brain): 0.05; Kp at 10 min ([6]; brain): 0.762; Kp at 0.5 h ([6]; brain): 0.645; Kp at 1 h ([6]; brain): 1.45; half-life (in vitro [9]): > 2 h; microsomal CLint (in vitro [9]): < 5.8 µL/min/mg; radioligand binding affinity (Ki, nM) MOR (MOR): subnanomolar
2 | CN(C(=O)/C=C/c1ccco1)[C@H]1CC[C@@]2(O)[C@H]3Cc4ccc(O)c5c4[C@@]2(CCN3CC2CC2)[C@H]1O5.Cl [Compound 21, 17-Cyclopropylmethyl-3,14β-dihydroxy-4,5α-epoxy-6α-[(2E)-3′-(furan-2″-yl)-N-methylprop-2-enamido]morphinan Hydrochloride] | 140 ± 20 pM | subnanomolar | 7 | 1 | 930 ± 210 pM | 1280 ± 280 pM | > 80% | 0.051 mg/kg | 0.1 mg/kg | ≥ 80% | 3 h | approximately 30 min | > 3 h | significant decrease in vertical counts at the largest dose tested | did not result in average speeds significantly different from vehicle at any time point | 5 min | no dose maintained a significant number of infusions earned above saline | > 2 h | < 5.8 µL/min/mg | 200 ± 20 pM | Selectivity Ratio MOR/KOR (KOR; supplement csv): 1.43; radioligand binding affinity (Ki, nM) DOR (DOR [1]; [3H]diprenorphine, hDOR-CHO membranes): subnanomolar; duration of action (male Swiss Webster mice [4]; 0.1 mg/kg s.c.): 3 h; Kp at 5 min ([6]; brain and plasma): 0.027; Kp at 10 min ([6]; brain and plasma): 0.186; Kp at 0.5 h ([6]; brain and plasma): 0.633; Kp at 1 h ([6]; brain and plasma): 0.938; half-life at 1 h, 1 µM (in vitro [9]): 1.16 h; microsomal CLint at 1 h, 1 µM (in vitro [9]): 10.1 µL/min/mg; radioligand binding affinity (Ki, nM) MOR (MOR): subnanomolar
